# In patent US11173145B2, “Compounds useful as inhibitors of indoleamine 2,3-dioxygenase and/or tryptophan dioxygenase” (Board of Regents, The University of Texas System, priority 2017, dated 2021):
# Molecular target: T1, IDO1 (Homo sapiens, UniProt P14902)
# T1 construct: endogenous in cells; host or cells: HeLa cells (ATCC), IFNgamma-induced
# Test: IDO1 cell-based assay (HeLa cells, IFNgamma-induced, N-formylkynurenine/L-tryptophan by RFMS)
# Conditions: 10 ng/mL IFNgamma, 24 hours
# Procedure: HeLa cells were obtained from the American Type Culture Collection (ATCC) and maintained in DMEM media containing 10% FBS. Cells (7,000/well) were seeded onto a 384 well plate in 50 μL of media and incubated at 37° C., 5% CO2 overnight. Cell media was aspirated, fresh media containing 10 ng/mL IFNgamma was added, and cells were incubated in absence or presence of various concentrations of test compound (final 0.5% DMSO) for 24 hours. Aliquots of the cell conditioned media were removed from the cell plate, and mixed with an equal volume of 200 mM ZnSO4 to precipitate media containing proteins. Two volumes of acetonitrile were added, mixed, and samples were then centrifuged at 2250G for 20 minutes at 4° C. Aliquots of the supernatant were diluted 1:10 in 0.1% formic acid containing 3 μM of deuterated Tryptophan as an internal standard.
# Samples were analyzed via RFMS to quantify N-Formyl Kynurenine (AUC) and L-tryptophan (AUC). A C18 cartridge was used with mobile phases of 0.1% Formic Acid and 80% ACN/0.1% Formic Acid under isocratic conditions. Dose-response curves were analyzed using IC50 regression curve fitting (GeneData Screener). […] Cell viability was also assessed using the Cell Titer Glo Kit (Promega) following manufacturer recommendation.
# T1 sequence (P14902 whole entry): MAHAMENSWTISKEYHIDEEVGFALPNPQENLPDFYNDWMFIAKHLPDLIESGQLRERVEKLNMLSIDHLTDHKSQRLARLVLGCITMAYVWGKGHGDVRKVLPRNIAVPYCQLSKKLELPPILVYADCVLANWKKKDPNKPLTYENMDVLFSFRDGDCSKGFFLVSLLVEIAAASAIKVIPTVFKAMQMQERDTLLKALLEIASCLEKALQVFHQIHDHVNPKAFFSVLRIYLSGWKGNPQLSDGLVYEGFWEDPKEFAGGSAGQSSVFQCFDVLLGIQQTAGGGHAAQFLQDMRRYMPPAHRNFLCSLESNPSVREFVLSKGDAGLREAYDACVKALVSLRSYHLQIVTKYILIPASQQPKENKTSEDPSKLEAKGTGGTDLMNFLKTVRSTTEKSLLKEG
row,SMILES,IC50
1,"CCC(NC(=O)c1ccc(Cl)cc1)[C@H]1[C@@H]2C[C@@H](n3cnc4cc(F)ccc4c3=O)C[C@@H]21 (stereo partly drawn) [Compound 34, 4-chloro-N-(1-((1R,3s,5S,6r)-3-(7-fluoro-4-oxoquinazolin-3(4H)-yl)bicyclo[3.1.0]hexan-6-yl)propyl)benzamide]",< 200 nM
2,"CCC(NC(=O)c1ccc(Cl)cc1)[C@H]1[C@@H]2C[C@@H](Oc3ncnc4cc(F)ccc34)C[C@@H]21 (stereo partly drawn) [Compound 35, 4-chloro-N-(1-((1R,3s,5S,6r)-3-((7-fluoroquinazolin-4-yl)oxy)bicyclo[3.1.0]hexan-6-yl)propyl)benzamide]",< 200 nM
3,"CCC(NC(=O)c1ccc(Cl)cc1)C1C2CC(Oc3ncnc4cccc(F)c34)CC21 [Compound 37, 4-chloro-N-(1-((1R,3s,5S,6r)-3-((5-fluoroquinazolin-4-yl)oxy)bicyclo[3.1.0]hexan-6-yl)propyl)benzamide]",< 200 nM
4,"CCC(NC(=O)c1ccc(Cl)cc1)[C@H]1[C@@H]2C[C@@H](Oc3ncccc3F)C[C@@H]21 (stereo partly drawn) [Compound 39, 4-chloro-N-(1-((1R,3s,5S,6r)-3-((3-fluoropyridin-2-yl)oxy)bicyclo[3.1.0]hexan-6-yl)propyl)benzamide]",< 200 nM
5,"CCC(NC(=O)c1ccc(Cl)cc1)[C@H]1[C@@H]2C[C@@H](Oc3cccc(C)n3)C[C@@H]21 (stereo partly drawn) [Compound 40, 4-chloro-N-(1-((1R,3s,5S,6r)-3-((6-methylpyridin-2-yl)oxy)bicyclo[3.1.0]hexan-6-yl)propyl)benzamide]",< 200 nM
6,"CCC(NC(=O)c1ccc(Cl)cc1)[C@H]1[C@@H]2C[C@@H](Oc3ncccc3C)C[C@@H]21 (stereo partly drawn) [Compound 41, 4-chloro-N-(1-((1R,3s,5S,6r)-3-((3-methylpyridin-2-yl)oxy)bicyclo[3.1.0]hexan-6-yl)propyl)benzamide]",< 200 nM
7,"CCC(NC(=O)c1ccc(Cl)cc1)[C@H]1[C@@H]2C[C@@H](Oc3cc(F)ccc3F)C[C@@H]21 (stereo partly drawn) [Compound 42, 4-chloro-N-(1-((1R,3s,5S,6r)-3-(2,5-difluorophenoxy)bicyclo[3.1.0]hexan-6-yl)propyl)benzamide]",< 200 nM
8,"CCC(NC(=O)c1ccc(Cl)cc1)[C@H]1[C@@H]2C[C@@H](Oc3cccc4cccnc34)C[C@@H]21 (stereo partly drawn) [Compound 43, 4-chloro-N-(1-((1R,3s,5S,6r)-3-(quinolin-8-yloxy)bicyclo[3.1.0]hexan-6-yl)propyl)benzamide]",< 200 nM
9,"CCC(NC(=O)c1ccc(Cl)cc1)[C@H]1[C@@H]2C[C@@H](Oc3c(F)cccc3F)C[C@@H]21 (stereo partly drawn) [Compound 44, 4-chloro-N-(1-((1R,3s,5S,6r)-3-(2,6-difluorophenoxy)bicyclo[3.1.0]hexan-6-yl)propyl)benzamide]",< 200 nM
10,"CCC(NC(=O)c1ccc(Cl)cc1)[C@H]1[C@@H]2C[C@@H](Oc3ccccc3CC(N)=O)C[C@@H]21 (stereo partly drawn) [Compound 45, N-(1-((1R,3s,5S,6r)-3-(2-(2-amino-2-oxoethyl)phenoxy)bicyclo[3.1.0]hexan-6-yl)propyl)-4-chlorobenzamide]",< 200 nM
11,"CCC(NC(=O)c1ccc(Cl)cc1)C1[C@H]2CC(Oc3cnnc4ccccc34)C[C@@H]12 (stereo partly drawn) [Compound 46, 4-chloro-N-(1-((1R,3s,5S,6r)-3-(cinnolin-4-yloxy)bicyclo[3.1.0]hexan-6-yl)propyl)benzamide]",< 200 nM
12,"CCC(NC(=O)c1ccc(Cl)cc1)[C@H]1[C@@H]2C[C@@H](n3ncc(=O)c4ccccc43)C[C@@H]21 (stereo partly drawn) [Compound 47, 4-chloro-N-(1-((1R,3s,5S,6r)-3-(4-oxocinnolin-1(4H)-yl)bicyclo[3.1.0]hexan-6-yl)propyl)benzamide]",< 200 nM
13,"CCC(NC(=O)c1ccc(Cl)cc1)[C@H]1[C@@H]2C[C@@H](Oc3ccccc3CN(C)C)C[C@@H]21 (stereo partly drawn) [Compound 48, 4-chloro-N-(1-((1R,3s,5S,6r)-3-(2-((dimethylamino)methyl)phenoxy)bicyclo[3.1.0]hexan-6-yl)propyl)benzamide]",2000 to 5000 nM
14,"CCC(NC(=O)c1ccc(Cl)cc1)[C@H]1[C@@H]2C[C@@H](Oc3cnc4ccccc4c3)C[C@@H]21 (stereo partly drawn) [Compound 49, 4-chloro-N-(1-((1R,3s,5S,6r)-3-(quinolin-3-yloxy)bicyclo[3.1.0]hexan-6-yl)propyl)benzamide]",< 200 nM
15,"CCC(NC(=O)c1ccc(Cl)cc1)[C@H]1[C@@H]2C[C@@H](Oc3cc(=O)n(C)c4ccccc34)C[C@@H]21 (stereo partly drawn) [Compound 50, 4-chloro-N-(1-((1R,3s,5S,6r)-3-((1-methyl-2-oxo-1,2-dihydroquinolin-4-yl)oxy)bicyclo[3.1.0]hexan-6-yl)propyl)benzamide]",< 200 nM
16,"CCC(NC(=O)c1ccc(Cl)cc1)[C@H]1[C@@H]2C[C@@H](n3ncc4cnccc43)C[C@@H]21 (stereo partly drawn) [Compound 51, N-(1-((1R,3s,5S,6r)-3-(1H-pyrazolo[4,3-c]pyridin-1-yl)bicyclo[3.1.0]hexan-6-yl)propyl)-4-chlorobenzamide]",< 200 nM
17,"CCC(NC(=O)c1ccc(Cl)cc1)[C@H]1[C@@H]2C[C@@H](Oc3nc(C)ncc3F)C[C@@H]21 (stereo partly drawn) [Compound 52, 4-chloro-N-(1-((1R,3s,5S,6r)-3-((5-fluoro-2-methylpyrimidin-4-yl)oxy)bicyclo[3.1.0]hexan-6-yl)propyl)benzamide]",< 200 nM
18,"CCC(NC(=O)c1ccc(Cl)cc1)[C@H]1[C@@H]2C[C@@H](n3cnc4cc(Cl)ccc4c3=O)C[C@@H]21 (stereo partly drawn) [Compound 53, 4-chloro-N-(1-((1R,3s,5S,6r)-3-(7-chloro-4-oxoquinazolin-3(4H)-yl)bicyclo[3.1.0]hexan-6-yl)propyl)benzamide]",< 200 nM
19,"CCC(NC(=O)c1ccc(Cl)cc1)[C@H]1[C@@H]2C[C@@H](Oc3ncncc3F)C[C@@H]21 (stereo partly drawn) [Compound 54, 4-chloro-N-(1-((1R,3s,5S,6r)-3-((5-fluoropyrimidin-4-yl)oxy)bicyclo[3.1.0]hexan-6-yl)propyl)benzamide]",< 200 nM
20,"CCC(NC(=O)c1ccc(Cl)cc1)[C@H]1[C@@H]2C[C@@H](Oc3ccc4c(Cl)ccnc4c3)C[C@@H]21 (stereo partly drawn) [Compound 57, 4-chloro-N-(1-((1R,3s,5S,6r)-3-((4-chloroquinolin-7-yl)oxy)bicyclo[3.1.0]hexan-6-yl)propyl)benzamide]",200 to 2000 nM
21,"CCC(NC(=O)c1ccc(Cl)cc1)[C@H]1[C@@H]2C[C@@H](Oc3cncc(F)c3)C[C@@H]21 (stereo partly drawn) [Compound 58, 4-chloro-N-(1-((1R,3s,5S,6r)-3-((5-fluoropyridin-3-yl)oxy)bicyclo[3.1.0]hexan-6-yl)propyl)benzamide]",< 200 nM
22,"CCC(NC(=O)c1ccc(Cl)cc1)[C@H]1[C@@H]2C[C@@H](Oc3ncnc4ccccc34)C[C@@H]21 (stereo partly drawn) [Compound 59, 4-chloro-N-(1-((1R,3s,5S,6r)-3-(quinazolin-4-yloxy)bicyclo[3.1.0]hexan-6-yl)propyl)benzamide]",< 200 nM
23,"CCC(NC(=O)c1ccc(Cl)cc1)[C@H]1[C@@H]2C[C@@H](Oc3cccnc3Cl)C[C@@H]21 (stereo partly drawn) [Compound 60, 4-chloro-N-(1-((1R,3s,5S,6r)-3-((2-chloropyridin-3-yl)oxy)bicyclo[3.1.0]hexan-6-yl)propyl)benzamide]",< 200 nM
24,"O=C(Cc1ccc(Cl)cc1)N[C@H]1[C@@H]2C[C@@H](Oc3ncnc4ccc(F)cc34)C[C@@H]21 [Compound 61, 2-(4-chlorophenyl)-N-((1R,3s,5S,6r)-3-((6-fluoroquinazolin-4-yl)oxy)bicyclo[3.1.0]hexan-6-yl)acetamide]",< 200 nM
25,"O=C(Cc1ccc(Cl)cc1)N[C@H]1[C@@H]2C[C@@H](n3cnc4ccc(F)cc4c3=O)C[C@@H]21 [Compound 62, 2-(4-chlorophenyl)-N-((1R,3s,5S,6r)-3-(6-fluoro-4-oxoquinazolin-3(4H)-yl)bicyclo[3.1.0]hexan-6-yl)acetamide]",2000 to 5000 nM
26,"CC(NC(=O)c1ccc(Cl)cc1)[C@H]1[C@@H]2C[C@@H](n3cnc4ccc(F)cc4c3=O)C[C@@H]21 (stereo partly drawn) [Compound 63, 4-chloro-N-(1-((1R,3s,5S,6r)-3-(6-fluoro-4-oxoquinazolin-3(4H)-yl)bicyclo[3.1.0]hexan-6-yl)ethyl)benzamide]",< 200 nM
27,"CC(NC(=O)c1ccc(Cl)cc1)[C@H]1[C@@H]2C[C@@H](Oc3ncnc4ccc(F)cc34)C[C@@H]21 (stereo partly drawn) [Compound 64, 4-chloro-N-(1-((1R,3s,5S,6r)-3-((6-fluoroquinazolin-4-yl)oxy)bicyclo[3.1.0]hexan-6-yl)ethyl)benzamide]",< 200 nM
28,"O=C(NC[C@@H]1[C@H]2C[C@H](n3cnc4ccc(F)cc4c3=O)C[C@@H]12)c1ccc(Cl)cc1 [Compound 65, 4-chloro-N-(((1R,3s,5S,6r)-3-(6-fluoro-4-oxoquinazolin-3(4H)-yl)bicyclo[3.1.0]hexan-6-yl)methyl)benzamide]",200 to 2000 nM
29,"CCC(NC(=O)c1ccc(C#N)cc1)[C@H]1[C@@H]2C[C@@H](Oc3ncnc4ccc(F)cc34)C[C@@H]21 (stereo partly drawn) [Compound 66, 4-cyano-N-(1-((1R,3s,5S,6r)-3-((6-fluoroquinazolin-4-yl)oxy)bicyclo[3.1.0]hexan-6-yl)propyl)benzamide]",< 200 nM
30,"CCC(NC(=O)c1ccc(C#N)cc1)[C@H]1[C@@H]2C[C@@H](n3cnc4ccc(F)cc4c3=O)C[C@@H]21 (stereo partly drawn) [Compound 67, 4-cyano-N-(1-((1R,3s,5S,6r)-3-(6-fluoro-4-oxoquinazolin-3(4H)-yl)bicyclo[3.1.0]hexan-6-yl)propyl)benzamide]",< 200 nM
